# Data taken from patent publication US12023345B2, “Compositions and methods for treating lysosomal disorders” (RUSH UNIVERSITY MEDICAL CENTER, priority 2014, dated 2024).
# What was measured:
# Tfeb = test: TFEB immunocytochemistry in mouse primary astrocytes and neurons; assay type: cell-based; conditions: 5 μM aspirin, 12 h
# Protocol: Isolation of Primary Mouse Astroglia: Astroglia were isolated from mixed glial cultures as described (24, 25) according to the procedure of Giulian and Baker (26). Briefly, on day 9, the mixed glial cultures were washed three times with Dulbecco's modified Eagle's medium/F-12 and subjected to shaking at 240 rpm for 2 h at 37° C. on a rotary shaker to remove microglia. After 2 days, the shaking was repeated for 24 h for the removal of oligodendroglia and to ensure the complete removal of all nonastroglial cells. The attached cells were seeded onto new plates for further studies.
# Isolation of Primary Mouse Neurons: Fetal (E18-E16) mouse neurons were prepared as previously described (27) with modifications. Whole brains were removed and the cells were washed by centrifugation three times at 1200 rpm for 10 min, the pellet dissociated and the cells plated at 10% confluence in 8-well chamber slides pre-treated for >2 hr with Poly-D-Lysine (Sigma, St. Louis, MO). After 4 min, the non-adherent cell suspension was aspirated and […] complete Neurobasal media (Invitrogen) supplemented with 2% B27 was added to each well. The cells were incubated for 4 days prior to experimentation. […] The cells were stimulated with gemfibrozil in Neurobasal media supplemented with 2% B27 minus antioxidants (Invitrogen) for 24 hr prior to methanol fixation and immunostaining.
# Immunostaining of Cells: Immunocytochemistry was performed as described earlier (29). Briefly, 8 well chamber slides containing mouse primary astrocytes, mouse neurons were cultured to 70-80% confluence were fixed with chilled Methanol (Fisher Scientific, Waltham, MA) overnight, followed by two brief rinses with filtered PBS. […] The samples were run in an EtOH and Xylene (Fisher) gradient, mounted, and observed under Olympus BX41 fluorescence microscope.
# [1] = test system: Tfeb promoter (pTFEB-Luc); test: Tfeb promoter-driven luciferase reporter activity in mouse primary astrocytes; assay type: cell-based; conditions: p(WT)Tfeb-Luc, different doses of aspirin, 4 h
# From the text: Construction of Mouse Tfeb Promoter-driven Reporter Construct: Mouse genomic DNA isolated from primary mouse astrocytes was used as the template during PCR. The 5′ flanking sequence of the mouse TFEB (−916/+61) gene was isolated by PCR. Primers were designed from gene bank sequences. Tfeb: sense: 5′- acgcgt CCAGGAGCCAGGGACGGGGTACATCTC -3′ (SEQ ID NO.: 11); antisense: 5′- agatct AAGGAGAAACTGAGTCCGGGCAGAAGG -3′ (SEQ ID NO.: 12). The sense primer was tagged with an Mlu1 restriction enzyme site while the antisense primer was tagged with Bgl II. The PCR was performed using an Advantage-2 PCR kit (Clontech) according to the manufacturer's instruction. The resulting fragments were gel purified and ligated into the PGEM-TEasy vector (Promega). These fragments were further subcloned into the PGL-3 Enhancer vector after digestion with corresponding restriction enzymes and verification by sequencing ACGT Inc. DNA Sequencing Services. […]
# Assay of Tfeb Promoter-driven Reporter Activity: Cells plated at 50-60% confluence in 12-well plates were cotransfected with 0.25 μg of pTFEB(WT)-Luc, pTFEB(Mu)-Luc and using Lipofectamine Plus (Invitrogen). […] Firefly luciferase activities were analyzed in cell extracts using the Luciferase Assay System kit (Promega) in a TD-20/20 Luminometer (Turner Designs) as described earlier (33, 34).
# [2] = at high doses; cited from earlier work
smiles,measurement,setting,value
CC(=O)Oc1ccccc1C(=O)O [aspirin],TFEB expression (immunofluorescence),Tfeb; PPARα (−/−) astrocytes,not PPARα (−/−)
same,TFEB expression (immunofluorescence),Tfeb; PPARβ (−/−) astrocytes,induced the expression of TFEB
same,TFEB expression (immunofluorescence),Tfeb; WT astrocytes,induced the expression of TFEB
same,Tfeb promoter driven luciferase activity,[1],induced Tfeb promoter driven luciferase activity
same,toxic effects,[2],"gastric ulcers, stomach bleeding, and tinnitus"
